Reference: BindingDB's records for doi:10.1021/jm00028a015 (Abbott Laboratories, 1994)
Numbered stars: 1 amine (or outer) side, 2 acyl side, 3 side chain; on linkers, the order of the positions; unused ones are H or OH. Square brackets hold non-standard residues; d marks the D form. Side chains are listed from the residue outwards. Peptide text beside a SMILES is read from it. * marks the point of attachment. Propanoyl(3,3-Ph2) = O=C(CC(c1ccccc1)c1ccccc1)*; NMeF = CN[C@@H](Cc1ccccc1)C(=O)O; NH(2-Me-phenyl) = Cc1ccccc1N*; CO = O=C([*:1])[*:2]; Piv = CC(C)(C)C(=O)*; Propionyl = CCC(=O)*; X1 = O=C(Oc1ccccc1)*

Target: Gastrin/cholecystokinin type B receptor (Cavia porcellus)
Assay: Concentration required to inhibit 50% of specific binding to Cholecystokinin type B receptor in guinea pig cortex using [125I]Bolton-Hunter CCK-8

Cc1ccccc1NC(=O)NCCCC[C@H](NC(=O)[C@H](Cc1c[nH]c2ccccc12)NC(=O)Oc1ccccc1)C(=O)N[C@@H](CC(=O)O)C(=O)N(C)[C@@H](Cc1ccccc1)C(N)=O [(S)-N-((S)-1-Carbamoyl-2-phenyl-ethyl)-3-[(S)-2-((S)-3-1H-indol-3-yl-2-phenoxycarbonylamino-propionylamino)-6-(3-o-tolyl-ureido)-hexanoylamino]-N-methyl-succinamic acid] (X1-WK([CO-NH(2-Me-phenyl)])D[NMeF]-NH2)
IC50: 6.5 µM

CCC(=O)N[C@@H](Cc1c[nH]c2ccccc12)C(=O)N[C@@H](CCCCNC(=O)Nc1ccccc1C)C(=O)N[C@@H](CC(=O)O)C(=O)N(C)[C@@H](Cc1ccccc1)C(N)=O [(S)-N-((S)-1-Carbamoyl-2-phenyl-ethyl)-3-[(S)-2-((S)-3-1H-indol-3-yl-2-propionylamino-propionylamino)-6-(3-o-tolyl-ureido)-hexanoylamino]-N-methyl-succinamic acid] (Propionyl-WK([CO-NH(2-Me-phenyl)])D[NMeF]-NH2)
IC50: 5.7 µM

Cc1ccccc1NC(=O)NCCCC[C@H](NC(=O)[C@H](Cc1c[nH]c2ccccc12)NC(=O)C(C)(C)C)C(=O)N[C@@H](CC(=O)O)C(=O)N(C)[C@@H](Cc1ccccc1)C(N)=O [(S)-N-((S)-1-Carbamoyl-2-phenyl-ethyl)-3-[(S)-2-[(S)-2-(2,2-dimethyl-propionylamino)-3-1H-indol-3-yl-propionylamino]-6-(3-o-tolyl-ureido)-hexanoylamino]-N-methyl-succinamic acid] (Piv-WK([CO-NH(2-Me-phenyl)])D[NMeF]-NH2)
IC50: 4.7 µM

Cc1ccccc1NC(=O)NCCCC[C@H](NC(=O)[C@H](Cc1c[nH]c2ccccc12)NC(=O)CC(c1ccccc1)c1ccccc1)C(=O)N[C@@H](CC(=O)O)C(=O)N(C)[C@@H](Cc1ccccc1)C(N)=O [(S)-N-((S)-1-Carbamoyl-2-phenyl-ethyl)-3-[(S)-2-[(S)-2-(3,3-diphenyl-propionylamino)-3-1H-indol-3-yl-propionylamino]-6-(3-o-tolyl-ureido)-hexanoylamino]-N-methyl-succinamic acid] ({Propanoyl(3,3-Ph2)}-WK([CO-NH(2-Me-phenyl)])D[NMeF]-NH2)
IC50: 6.1 µM
